# Data taken from ChEMBL document CHEMBL3526152, “Cytoprotective effect of 20S-Rg3 on benzo[a]pyrene-induced DNA damage” (Drug Metab Dispos, 2012).
# Calls of active or inactive are those of the source. The rule behind the calls is not given here.
# Experiments:
# HDF [1] = assay: Cytoprotective activity in neonatal HDF assessed as reduction of BaP-induced cell death at 10 uM after 24 hrs by MTT assay; assay type: functional; settings: Homo sapiens
# [2] = Cytotoxicity against neonatal HDF assessed as cell viability at 10 uM after 24 hrs by MTT assay relative to control; assay type: functional; settings: Homo sapiens, read-out: Activity
# [3] = Cytoprotective activity in neonatal HDF assessed as reduction of BaP-induced DNA strand breakage by measuring tunnel positive cells at 10 uM after 24 hrs (reference value: 15.96%); assay type: functional, Homo sapiens; design: scale not given: the % may be the effect or the level left
# HDF [4] = assay: Cytoprotective activity in neonatal HDF assessed as reduction of BaP-induced tail moment at 10 uM after 24 hrs by comet assay; assay type: functional; settings: Homo sapiens
# HDF [5] = assay: Cytoprotective activity in neonatal HDF assessed as reduction of BaP-induced tail moment at 10 uM after 24 hrs by comet assay in presence of PI3K/Akt inhibitor LY294002; assay type: functional; settings: Homo sapiens
# [6] = biological target: RAC-alpha serine/threonine-protein kinase (Homo sapiens) (UniProt P31749); assay: Induction of AKT phosphorylation at Ser473 in neonatal HDF at 10 uM by Western blot analysis; settings: TDE = time-dependent effect
# Chain of RAC-alpha serine/threonine-protein kinase (Homo sapiens) (P31749 whole entry): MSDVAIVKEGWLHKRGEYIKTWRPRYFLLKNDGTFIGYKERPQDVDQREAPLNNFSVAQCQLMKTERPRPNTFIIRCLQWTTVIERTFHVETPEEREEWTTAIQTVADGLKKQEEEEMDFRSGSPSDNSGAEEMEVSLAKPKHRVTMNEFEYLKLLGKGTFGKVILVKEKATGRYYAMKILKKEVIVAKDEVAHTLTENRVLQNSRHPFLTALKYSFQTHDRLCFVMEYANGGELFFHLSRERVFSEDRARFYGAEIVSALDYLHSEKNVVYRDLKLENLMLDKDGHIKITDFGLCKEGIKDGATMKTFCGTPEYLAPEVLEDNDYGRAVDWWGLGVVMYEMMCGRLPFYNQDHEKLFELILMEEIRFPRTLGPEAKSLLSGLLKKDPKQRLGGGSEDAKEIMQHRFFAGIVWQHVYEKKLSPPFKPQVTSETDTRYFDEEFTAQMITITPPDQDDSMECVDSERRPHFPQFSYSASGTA
# Homo sapiens = species: Homo sapiens; assay: Induction of ERK phosphorylation at Thr202/Try204 in neonatal HDF at 10 uM by Western blot analysis; settings: TDE = time-dependent effect
# [7] = biological target: T1, Nuclear factor erythroid 2-related factor 2 (Homo sapiens) (UniProt Q16236); assay: Induction of Nrf2 nuclear translocation in BaP-treated neonatal HDF at 10 uM after 2 hrs by DAPI staining-based confocal scanning laser microcopic analysis
# T1 sequence (whole entry): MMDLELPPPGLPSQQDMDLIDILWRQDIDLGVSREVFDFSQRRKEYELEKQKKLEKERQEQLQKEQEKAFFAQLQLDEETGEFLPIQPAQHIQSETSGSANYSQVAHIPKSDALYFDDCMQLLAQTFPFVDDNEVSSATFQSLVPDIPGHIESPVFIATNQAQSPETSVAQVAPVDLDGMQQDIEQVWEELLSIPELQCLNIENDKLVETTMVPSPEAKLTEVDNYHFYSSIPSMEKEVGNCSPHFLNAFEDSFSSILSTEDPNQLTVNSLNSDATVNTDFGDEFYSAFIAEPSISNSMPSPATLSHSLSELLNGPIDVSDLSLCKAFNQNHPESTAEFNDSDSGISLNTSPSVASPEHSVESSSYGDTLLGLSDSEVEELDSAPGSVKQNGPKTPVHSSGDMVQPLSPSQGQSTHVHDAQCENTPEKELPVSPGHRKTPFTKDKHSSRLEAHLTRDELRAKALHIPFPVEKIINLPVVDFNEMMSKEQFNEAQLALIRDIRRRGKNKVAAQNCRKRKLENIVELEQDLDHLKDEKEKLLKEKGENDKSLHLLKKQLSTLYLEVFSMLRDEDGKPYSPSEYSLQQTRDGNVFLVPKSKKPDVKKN
# [8] = biological target: T1, Nuclear factor erythroid 2-related factor 2 (Homo sapiens); assay: Induction of Nrf2 nuclear translocation in neonatal HDF at 10 uM after 2 hrs by DAPI staining-based confocal scanning laser microcopic analysis
# [9] = biological target: T1, Nuclear factor erythroid 2-related factor 2 (Homo sapiens); assay: Induction of Nrf2 nuclear translocation in BaP-treated neonatal HDF at 10 uM after 2 hrs by DAPI staining-based confocal scanning laser microcopic analysis in presence of PI3K/Akt inhibitor LY294002
# [10] = biological target: T1, Nuclear factor erythroid 2-related factor 2 (Homo sapiens); assay: Induction of Nrf2 nuclear translocation in BaP-treated neonatal HDF assessed as upregulation of NQO1 mRNA expression at 10 uM after 24 hrs by real-time PCR analysis relative to BaP-treated control
# [11] = biological target: T2, Nuclear receptor subfamily 1 group I member 2 (Homo sapiens, UniProt O75469); assay: Competitive binding affinity to PXR in human HepG2 cells at 0.01 to 50 uM by FRET analysis in presence of […]; assay type: cell-based
# T2 sequence (O75469 whole entry): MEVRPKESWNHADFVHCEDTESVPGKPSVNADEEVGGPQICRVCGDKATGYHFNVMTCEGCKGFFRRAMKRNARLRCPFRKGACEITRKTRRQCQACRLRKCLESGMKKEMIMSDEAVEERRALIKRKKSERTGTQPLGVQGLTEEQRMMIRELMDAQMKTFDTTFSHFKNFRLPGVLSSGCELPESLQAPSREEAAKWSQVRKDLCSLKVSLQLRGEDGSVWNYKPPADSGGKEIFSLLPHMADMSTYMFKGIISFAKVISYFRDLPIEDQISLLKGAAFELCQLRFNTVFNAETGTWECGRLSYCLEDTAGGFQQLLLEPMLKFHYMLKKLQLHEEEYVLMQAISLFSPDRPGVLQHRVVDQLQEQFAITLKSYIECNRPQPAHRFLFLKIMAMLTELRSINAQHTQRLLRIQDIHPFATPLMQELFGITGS
# HepG2 [12] = assay: Cytoprotective activity in human HepG2 cells assessed as reduction of BaP-induced tail moment at 10 uM after 24 hrs by comet assay; assay type: functional, cell-based
# HepG2 [13] = assay: Cytoprotective activity in human HepG2 cells transfected with siPXR assessed as reduction of BaP-induced tail moment at 10 uM after 24 hrs by comet assay; assay type: functional, cell-based
# Plasma = assay: Plasma concentration in human at 60 mg by HPLC-MS analysis; assay type: ADME
SMILES,Activity (HDF [1]),viability at 10 µM [2],Activity [3],Activity (HDF [4]),Activity (HDF [5]),Activity [6],Activity (Homo sapiens),Activity [7],Activity [8],Activity [9],fold change (FC) [10],Activity [11],Activity (HepG2 [12]),Activity (HepG2 [13]),concentration (Plasma)
CC(C)=CCC[C@](C)(O[C@@H]1O[C@H](CO)[C@@H](O)[C@H](O)[C@H]1O)[C@H]1CC[C@]2(C)[C@@H]1[C@H](O)C[C@@H]1[C@@]3(C)CC[C@H](O)C(C)(C)[C@@H]3[C@@H](O[C@@H]3O[C@H](CO)[C@@H](O)[C@H](O)[C@H]3O)C[C@]12C [GINSENOSIDE RG1],inactive,98%,20.97%,inactive,–,–,–,–,–,–,–,–,–,–,–
CC(C)=CCC[C@@](C)(O)[C@H]1CC[C@]2(C)[C@@H]1[C@H](O)C[C@@H]1[C@@]3(C)CC[C@H](O[C@@H]4O[C@H](CO)[C@@H](O)[C@H](O)[C@H]4O[C@@H]4O[C@H](CO)[C@@H](O)[C@H](O)[C@H]4O)C(C)(C)[C@@H]3CC[C@]12C,inactive,105%,12.76%,inactive,–,–,–,–,–,–,–,–,–,–,–
CC(C)=CCC[C@](C)(O)[C@H]1CC[C@]2(C)[C@@H]1[C@H](O)C[C@@H]1[C@@]3(C)CC[C@H](O[C@@H]4O[C@H](CO)[C@@H](O)[C@H](O)[C@H]4O[C@@H]4O[C@H](CO)[C@@H](O)[C@H](O)[C@H]4O)C(C)(C)[C@@H]3CC[C@]12C,Active,124%,3.07%,Active,inactive,tde,tde,Active,Active,inactive,2,Active,Active,inactive,3 nM
CC(C)=CCC[C@](C)(O[C@@H]1O[C@H](CO[C@@H]2O[C@H](CO)[C@@H](O)[C@H](O)[C@H]2O)[C@@H](O)[C@H](O)[C@H]1O)[C@H]1CC[C@]2(C)[C@@H]1[C@H](O)C[C@@H]1[C@@]3(C)CC[C@H](O[C@@H]4O[C@H](CO)[C@@H](O)[C@H](O)[C@H]4O[C@@H]4O[C@H](CO)[C@@H](O)[C@H](O)[C@H]4O)C(C)(C)[C@@H]3CC[C@]12C [GINSENOSIDE RB1],inactive,91%,9.77%,inactive,–,–,–,–,–,–,–,–,–,–,–
